In patent US20210246115A1 (Bioimics AB, priority 2017, published 2021):
Counter-ions that a name gives are not always drawn. Like-named read-outs stand apart in the source and are kept apart here.

Assays:
[1] = system: Staphylococcus aureus (ATCC25923); assay: MIC, broth microdilution (CLSI), Staphylococcus aureus ATCC25923; conditions: for MIC: Staphylococcus aureus, ATCC25923, read-out: S. aureus ATCC 25923 MIC
Method: Initial minimal inhibitory concentration (MIC) tests were made on two bacterial strains: • Escherichia coli (ATCC25922) • Staphylococcus aureus (ATCC25923).
MIC values were determined using the standard broth microdilution procedure based on the guidelines by the Clinical and Laboratory Standards Institute (CLSI). Briefly, the compounds were dissolved in DMSO to 10 mM. They were diluted in cation-adjusted Mueller-Hinton broth (CAMHB) to four times the highest concentration tested. A serial two-fold dilution in CAMHB was done in microdilution plates. The inoculum of bacterial strain to be tested was prepared by making a suspension of colonies from an 18 to 24 hours old plate in CAMHB. The inoculum was diluted so that, after inoculation, each well contained approximately 5×10^5 CFU/mL. To a volume of 50 μl compound in CA 3 an equal volume of inoculum was added. The tray was sealed in a plastic bag and incubated at 35° C. for 16 to 20 hours. To aid in the detection of growth the dye resazurin was added to a final concentration 0.001% and incubated at room temperature for 1 h. Reduction of resazurin, and therefore bacterial growth, was seen as a change from blue to pink.

[2] = system: S. aureus MRSA ATCC 33591; assay: MIC, S. aureus MRSA ATCC 33591; assay type: cell-based; conditions: Staphylococcus aureus; Table XIV A. Gram-positive bacteria; read-out: S. aureus MRSA ATCC 33591 MIC
[3] = system: Escherichia coli (ATCC25922); assay: MIC, broth microdilution (CLSI), Escherichia coli; conditions: for MIC: Escherichia coli
H. influenzae ATCC 49247 = assay: MIC, H. influenzae ATCC 49247; assay type: cell-based; conditions: Haemophilus influenzae, ATCC49247; Table XIV B. Gram-negative bacteria
[4] = system: P. aeruginosa NTUH974 (MDR); assay: MIC, P. aeruginosa NTUH974 (MDR); assay type: cell-based; conditions: Pseudomonas aeruginosa; Table XIV B. Gram-negative bacteria; read-out: P. aeruginosa NTUH974 (MDR) MIC
M. fortuitum ATCC 110 = assay: MIC, M. fortuitum ATCC 110; assay type: cell-based; conditions: Mycolicibacterium fortuitum, ATCC110; Table XIV A. Gram-positive bacteria
[5] = system: E. coli RNase P RNA, M1 RNA; assay: Inhibition of bacterial RNase P activity, IC50 determination (cleavage of pATSerUG by M1 RNA); assay type: biochemical; conditions: NI: No inhibition
[6] = system: E. coli JW5503 (efflux defective); assay: MIC, E. coli JW5503 (efflux defective); assay type: cell-based; conditions: Escherichia coli, read-out: E. coli JW5503 (efflux defective) MIC
M. phlei ATCC 11758 = assay: MIC, M. phlei ATCC 11758; assay type: cell-based; conditions: Mycolicibacterium phlei, ATCC11758; Table XIV A. Gram-positive bacteria
[7] = system: Staphylococcus aureus subsp. aureus (ATCC29213); assay: MIC, broth microdilution (CLSI), Staphylococcus aureus ATCC29213; assay type: cell-based; conditions: Staphylococcus aureus, read-out: S. aureus ATCC 29213 MIC
S. pneumoniae ATCC 49619 = assay: MIC, S. pneumoniae ATCC 49619; assay type: cell-based; conditions: Streptococcus pneumoniae, ATCC49619; Table XIV A. Gram-positive bacteria
K. pneumoniae ATCC 43816 = assay: MIC, K. pneumoniae ATCC 43816; assay type: cell-based; conditions: Klebsiella pneumoniae, ATCC43816; Table XIV B. Gram-negative bacteria
A. baumannii ATCC 17978 = assay: MIC, A. baumannii ATCC 17978; assay type: cell-based; conditions: Acinetobacter baumannii, ATCC17978; Table XIV B. Gram-negative bacteria
[8] = system: S. aureus USA300 MRSA BAA-1717; assay: MIC, S. aureus USA300 MRSA BAA-1717; assay type: cell-based; conditions: Staphylococcus aureus; Table XIV A. Gram-positive bacteria; read-out: S. aureus USA300 MRSA BAA-1717 MIC
E. faecium ATCC 700221 = assay: MIC, E. faecium ATCC 700221; assay type: cell-based; conditions: Enterococcus faecium, ATCC700221; Table XIV A. Gram-positive bacteria; read-out: E. faecium ATCC 700221 MIC
[9] = system: N. gonorrhoeae ATCC 700825; assay: MIC, N. gonorrhoeae ATCC 700825; assay type: cell-based; conditions: Neisseria gonorrhoeae, ATCC700825; Table XIV B. Gram-negative bacteria
[10] = system: Pseudomonas aeruginosa (ATCC27853); assay: MIC, broth microdilution (CLSI), Pseudomonas aeruginosa; assay type: cell-based; conditions: ATCC27853, Table XIV B. Gram-negative bacteria, read-out: P. aeruginosa ATCC 27853 MIC
[11] = system: Enterococcus faecalis (ATCC29212); assay: MIC, broth microdilution (CLSI), Enterococcus faecalis; assay type: cell-based; conditions: ATCC29212, Table XIV A. Gram-positive bacteria, read-out: E. faecalis ATCC 29212 MIC
[12] = system: E. coli RNase P RNA, M1 RNA; assay: Initial screening for inhibition of RNase P activity (normalised cleavage of pATSerUG at maximum compound concentration); assay type: biochemical; conditions: normalised cleavage (cleavage with compound / without compound) at maximum compound concentration
[13] = ATCC25922, read-out: E. coli ATCC 25922 MIC, Table XIII
[14] = ATCC25922, read-out: E. coli ATCC 25922 MIC, Table XIV B. Gram-negative bacteria
[15] = ATCC29213, Table XIV A. Gram-positive bacteria

Row | Compound | MIC [1] [µg/mL] | MIC [2] [µg/mL] | MIC [3, 13] [µg/mL] | MIC [3, 14] [µg/mL] | MIC (H. influenzae ATCC 49247) [µg/mL] | MIC [4] [µg/mL] | MIC (M. fortuitum ATCC 110) [µg/mL] | IC50 [5] [µM] | MIC [6] [µg/mL] | MIC (M. phlei ATCC 11758) [µg/mL] | MIC ([7]; ATCC29213, Table XIII) [µg/mL] | MIC [7, 15] [µg/mL] | MIC (S. pneumoniae ATCC 49619) [µg/mL] | MIC (K. pneumoniae ATCC 43816) [µg/mL] | MIC (A. baumannii ATCC 17978) [µg/mL] | MIC [8] [µg/mL] | MIC (E. faecium ATCC 700221) [µg/mL] | MIC [9] [µg/mL] | MIC [10] [µg/mL] | MIC [11] [µg/mL] | also measured
1 | Cc1cccc(-c2ccc3c(c2)c(CCN[C@H]2CC[C@H](N)CC2)cn3CC2CCCCC2)c1 [Compound 225, (1R,4R)-N1-(2-(1-(cyclohexylmethyl)-5-(m-tolyl)-1H-indol-3-yl)ethyl)cyclohexane-1,4-diamine hydrochloride salt] | 2 | 2 | 2 | 2 | 4 | 16 | 1 | 11.8 | 2 | 1 | 2 | 2 | 8 | 2 | 2 | 2 | 1 | 2 | 8 | 2 | –
2 | COc1ccccc1-c1ccc2c(c1)c(CCCN[C@H]1CC[C@H](N)CC1)cn2CC1CCCCC1 [Compound 237, (1S,4S)-N1-(3-(1-(cyclohexylmethyl)-5-(2-methoxyphenyl)-1H-indol-3-yl)propyl)cyclohexane-1,4-diamine hydrochloride salt] | 2 | 4 | 4 | 4 | 8 | 16 | 2 | 9.8 | 4 | 2 | 4 | 2 | 8 | 4 | 8 | 4 | 2 | 2 | 16 | 2 | –
3 | Cc1cccc(C(CCN[C@H]2CC[C@H](N)CC2)c2cn(CC3CCCCC3)c3ccccc23)c1 (stereo partly drawn) [Compound 199, (1R,4R)-N1-(3-(1-(cyclohexylmethyl)-1H-indol-3-yl)-3-(m-tolyl)propyl) cyclohexane-1,4-diamine hydrochloride] | 2 | 8 | 4 | 32 | 8 | 64 | 2 | 9.8 | 4 | 2 | 4 | 8 | 16 | 16 | 8 | 4 | 4 | 4 | 32 | 8 | –
4 | Cc1cccc(C(CCNC2CCNCC2)c2cn(CC3CCCCC3)c3ccccc23)c1.Cl (stereo not shown) [Compound 122, N-(3-(1-(cyclohexylmethyl)-1H-indol-3-yl)-3-(m-tolyl)propyl)piperidin-4-amine hydrochloride salt] | 2 | 4 | 4 | 4 | 4 | 16 | 2 | 4 | 4 | 2 | 8 | 4 | 8 | 4 | 8 | – | 2 | 2 | 16 | 4 | –
5 | Cc1cccc(C(CCNC2CCC(N)CC2)c2cn(CC3CCCCCC3)c3ccccc23)c1 [Compound 245, (1S,4S)-N1-(3-(1-(cycloheptylmethyl)-1H-indol-3-yl)-3-(m-tolyl)propyl)cyclohexane-1,4-diamine hydrochloride salt] | 1 | 4 | 4 | 4 | 8 | 16 | 2 | 13 | 4 | 2 | 4 | 4 | 8 | 8 | 4 | 2 | 2 | 2 | 16 | 4 | –
6 | NC1CCC(NCCC(c2cccc(OC(F)(F)F)c2)c2cn(CC3CCCCC3)c3ccccc23)CC1 [Compound 173, (1S,4S)-N1-(3-(1-(cyclohexylmethyl)-1H-indol-3-yl)-3-(3-(trifluoromethoxy)phenyl)propyl)cyclohexane-1,4-diamine hydrochloride salt] | 2 | 2 | 4 | 4 | 4 | 16 | 2 | 3 | 4 | 1 | 2 | 2 | 8 | 4 | 4 | 2 | 2 | 2 | 16 | 2 | –
7 | Cc1cccc(C(CC(=O)NCCC2CCNCC2)c2cn(Cc3ccccc3)c3cccnc23)c1.Cl (stereo not shown) [Compound 85, 3-(1-benzyl-1H-pyrrolo[3,2-b]pyridin-3-yl)-N-(2-(piperidin-4-yl)ethyl)-3-(m-tolyl)propanamide hydrochloride salt] | – | – | – | – | – | – | – | 806 | – | – | – | – | – | – | – | – | – | – | – | – | Initial screening of RNase P Inhibition [12]: 0.20
8 | CCn1cc(C(CC(=O)NCCC2CCNCC2)c2cccc(C)c2)c2ccccc21.Cl (stereo not shown) [Compound 84, 3-(1-ethyl-1H-indol-3-yl)-N-(2-(piperidin-4-yl)ethyl)-3-(m-tolyl)propanamide hydrochloride salt] | – | – | – | – | – | – | – | 823 | – | – | – | – | – | – | – | – | – | – | – | – | Initial screening of RNase P Inhibition [12]: 0.32
9 | Cc1cccc(C(CC(=O)NCCC2CCNCC2)c2cn(Cc3ccccc3)c3ccccc23)c1.Cl (stereo not shown) [Compound 87, 3-(1-benzyl-1H-indol-3-yl)-N-(2-(piperidin-4-yl)ethyl)-3-(m-tolyl) propanamide hydrochloride salt] | – | – | – | – | – | – | – | – | – | – | – | – | – | – | – | – | – | – | – | – | IC50 ([5]; hydrochloride salt): 154 µM; Initial screening of RNase P Inhibition ([12]; hydrochloride salt): 0.30
10 | N[C@H]1CC[C@H](NC2CCC(c3cn(CC4CCCCC4)c4ccc(Br)cc34)CC2)CC1 (single isomer, unassigned) [Compound 266, (1r,4r)-N1-(4-(5-bromo-1-(cyclohexylmethyl)-1H-indol-3-yl)cyclohexyl)cyclohexane-1,4-diamine hydrochloride salt] | – | 2 | – | 4 | 4 | 16 | 2 | – | 4 | 2 | 2 | 4 | 8 | 4 | 8 | 2 | 2 | 2 | 8 | 2 | S. aureus ATCC 25923 MIC ([1]; Table XIII): 2 µg/mL; E. coli ATCC 25922 MIC ([3]; Table XIII): 2 µg/mL; IC50 ([5]; hydrochloride salt): 8.5 µM
